According to the supplement of paper PMC10307832:

How the values were obtained:
Assay in all cases: relative viability (nuclei count vs DMSO), 5 days (fraction); higher = more cells survive
[1] = system: LCLC-97TM1
How it was run: (§1)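 After 5 days of treatment, lung cancer cells in 1536-well plates were fixed and stained in a single step (final 0.05% Triton X-100, 1% formaldehyde, 1 ug/ml Hoechst) and their nuclei counted on 4× images. Treatment had been applied by pin tool the day after seeding as one drug alone or as a fixed anchor-drug dose with five library-drug doses (not always all listed) in √10 steps. Relative viability is the nuclei count of treated wells divided by that of vehicle wells, and values are medians of duplicate plates.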

[2] = system: NCI-H1734
How it was run: as §1

[3] = system: SW 900
How it was run: as §1

[4] = system: SW 1573
How it was run: as §1

[5] = system: LC-2-ad
How it was run: as §1

[6] = system: NCI-H1563
How it was run: as §1

[7] = system: NCI-H2023
How it was run: as §1

[8] = system: HCC-44
How it was run: as §1

[9] = system: NCI-H520
How it was run: as §1

[10] = system: UMC-11
How it was run: as §1

[11] = system: COR-L 105
How it was run: as §1

[12] = system: NCI-H2342
How it was run: as §1

[13] = system: NCI-H1792
How it was run: as §1

[14] = system: NCI-H838
How it was run: as §1

[15] = system: A-427
How it was run: as §1

[16] = system: CAL-12T
How it was run: as §1

[17] = system: NCI-H1915
How it was run: as §1

[18] = system: EPLC-272H
How it was run: as §1

[19] = system: NCI-H1975
How it was run: as §1

[20] = system: HCC-15
How it was run: as §1

[21] = system: NCI-H1395
How it was run: as §1

[22] = system: NCI-H2347
How it was run: as §1

[23] = system: NCI-H2405
How it was run: as §1

With `CN1CCN(CCOc2cc(OC3CCOCC3)c3c(Nc4c(Cl)ccc5c4OCO5)ncnc3c2)CC1` [Saracatinib] + Nc1nc2[nH]cc(CCc3ccc(C(=O)N[C@@H](CCC(=O)O)C(=O)O)cc3)c2c(=O)[nH]1 [Pemetrexed] (partner 0.2 µM) the relative viability ([1]; first compound 0.02 µM) was 0.18, the relative viability ([1]; first compound 0.2 µM) was 0.134 and the relative viability ([1]; first compound 0.6325 µM) was 0.172. It also gave a relative viability ([1]; first compound 2 µM) of 0.136, a relative viability ([2]; first compound 0.02 µM) of 0.418 and a relative viability ([2]; first compound 0.6325 µM) of 0.414. For the same compound, the relative viability ([2]; first compound 2 µM) was 0.4, the relative viability ([3]; first compound 0.02 µM) was 0.559 and the relative viability ([3]; first compound 0.2 µM) was 0.361. The relative viability ([3]; first compound 0.6325 µM) was 0.506, the relative viability ([3]; first compound 2 µM) was 0.408 and the relative viability ([4]; first compound 0.02 µM) was 0.823. For the same compound, the relative viability ([4]; first compound 0.2 µM) was 0.899, the relative viability ([4]; first compound 0.6325 µM) was 0.794 and the relative viability ([4]; first compound 2 µM) was 0.767. For the same compound, the relative viability ([5]; first compound 0.02 µM) was 0.286, the relative viability ([5]; first compound 0.2 µM) was 0.282 and the relative viability ([5]; first compound 0.6325 µM) was 0.268. For the same compound, the relative viability ([5]; first compound 2 µM) was 0.27, the relative viability ([6]; first compound 0.02 µM) was 0.946 and the relative viability ([6]; first compound 0.2 µM) was 0.576. For the same compound, the relative viability ([6]; first compound 0.6325 µM) was 0.742, the relative viability ([6]; first compound 2 µM) was 0.592 and the relative viability ([7]; first compound 0.02 µM) was 0.229. For the same compound, the relative viability ([7]; first compound 0.2 µM) was 0.189, the relative viability ([7]; first compound 0.6325 µM) was 0.202 and the relative viability ([7]; first compound 2 µM) was 0.191. For the same compound, the relative viability ([8]; first compound 0.02 µM) was 0.645, the relative viability ([8]; first compound 0.2 µM) was 0.607 and the relative viability ([8]; first compound 0.6325 µM) was 0.618. For the same compound, the relative viability ([8]; first compound 2 µM) was 0.667, the relative viability ([9]; first compound 0.02 µM) was 0.625 and the relative viability ([9]; first compound 0.2 µM) was 0.508. The relative viability ([9]; first compound 0.6325 µM) was 0.474, the relative viability ([9]; first compound 2 µM) was 0.337 and the relative viability ([10]; first compound 0.02 µM) was 0.809. The relative viability ([10]; first compound 0.2 µM) was 0.699, the relative viability ([10]; first compound 0.6325 µM) was 0.898 and the relative viability ([10]; first compound 2 µM) was 0.607. It also gave a relative viability ([11]; first compound 0.02 µM) of 1.2, a relative viability ([11]; first compound 0.2 µM) of 1.21 and a relative viability ([11]; first compound 0.6325 µM) of 1.26. The relative viability ([11]; first compound 2 µM) was 0.717, the relative viability ([12]; first compound 0.02 µM) was 0.83 and the relative viability ([12]; first compound 0.2 µM) was 0.673. It also gave a relative viability ([12]; first compound 0.6325 µM) of 0.789, a relative viability ([12]; first compound 2 µM) of 0.84 and a relative viability ([13]; first compound 0.02 µM) of 1.06. For the same compound, the relative viability ([13]; first compound 0.2 µM) was 0.644, the relative viability ([13]; first compound 0.6325 µM) was 1.12 and the relative viability ([13]; first compound 2 µM) was 0.788. The relative viability ([14]; first compound 0.02 µM) was 0.254, the relative viability ([14]; first compound 0.2 µM) was 0.204 and the relative viability ([14]; first compound 0.6325 µM) was 0.248. For the same compound, the relative viability ([14]; first compound 2 µM) was 0.227, the relative viability ([15]; first compound 0.02 µM) was 0.963 and the relative viability ([15]; first compound 0.2 µM) was 0.787. For the same compound, the relative viability ([15]; first compound 0.6325 µM) was 0.846, the relative viability ([15]; first compound 2 µM) was 1.01 and the relative viability ([16]; first compound 0.02 µM) was 1.27. For the same compound, the relative viability ([16]; first compound 0.2 µM) was 1.15, the relative viability ([16]; first compound 0.6325 µM) was 1.33 and the relative viability ([16]; first compound 2 µM) was 1.18. It also gave a relative viability ([17]; first compound 0.02 µM) of 0.477, a relative viability ([17]; first compound 0.2 µM) of 0.4 and a relative viability ([17]; first compound 0.6325 µM) of 0.501. It also gave a relative viability ([17]; first compound 2 µM) of 0.481, a relative viability ([18]; first compound 0.02 µM) of 0.334 and a relative viability ([18]; first compound 0.2 µM) of 0.313. For the same compound, the relative viability ([18]; first compound 0.6325 µM) was 0.239, the relative viability ([18]; first compound 2 µM) was 0.251 and the relative viability ([19]; first compound 0.02 µM) was 0.276. For the same compound, the relative viability ([19]; first compound 0.2 µM) was 0.265, the relative viability ([19]; first compound 0.6325 µM) was 0.275 and the relative viability ([19]; first compound 2 µM) was 0.253. It also gave a relative viability ([20]; first compound 0.02 µM) of 0.213, a relative viability ([20]; first compound 0.2 µM) of 0.225 and a relative viability ([20]; first compound 0.6325 µM) of 0.219. It also gave a relative viability ([20]; first compound 2 µM) of 0.222, a relative viability ([21]; first compound 0.02 µM) of 0.896 and a relative viability ([21]; first compound 0.2 µM) of 0.769. The relative viability ([21]; first compound 0.6325 µM) was 0.846, the relative viability ([21]; first compound 2 µM) was 0.612 and the relative viability ([22]; first compound 0.02 µM) was 0.435. The relative viability ([22]; first compound 0.2 µM) was 0.421, the relative viability ([22]; first compound 0.6325 µM) was 0.464 and the relative viability ([22]; first compound 2 µM) was 0.429. The relative viability ([23]; first compound 0.02 µM) was 0.995, the relative viability ([23]; first compound 0.2 µM) was 0.671 and the relative viability ([23]; first compound 0.6325 µM) was 0.843. For the same compound, the relative viability ([23]; first compound 2 µM) was 0.488.
